What was measured:
Details in all cases: 72 h
Calu-3 [1] = test: relative viability EC50 (midpoint between 100% and the lowest measured viability); higher = less toxic
HepG2 [2] = test: as above
Vero E6 [3] = test: as above
U2OS [4] = test: as above
Caco-2 [5] = test: as above
Calu-3 [6] = test: cell viability relative to DMSO; higher = less toxic
HepG2 [7] = test: as above
Vero E6 [8] = test: as above
U2OS [9] = test: as above
Caco-2 [10] = test: as above
Calu-3 [11] = test: drug sensitivity score (DSS) for viability; higher = more toxic; extreme values may be limits of the assay
HepG2 [12] = test: as above
Vero E6 [13] = test: as above
U2OS [14] = test: as above
Caco-2 [15] = test: as above

Row | SMILES | relative viability EC50 (Calu-3 [1]) [µM] | relative viability EC50 (HepG2 [2]) [µM] | relative viability EC50 (Vero E6 [3]) [µM] | relative viability EC50 (U2OS [4]) [µM] | relative viability EC50 (Caco-2 [5]) [µM] | cell viability (Calu-3 [6]; 1 nM) [%] | cell viability (Calu-3 [6]; 10 nM) [%] | cell viability (Calu-3 [6]; 100 nM) [%] | cell viability (Calu-3 [6]; 1000 nM) [%] | cell viability (Calu-3 [6]; 10000 nM) [%] | cell viability (HepG2 [7]; 1 nM) [%] | cell viability (HepG2 [7]; 10 nM) [%] | cell viability (HepG2 [7]; 100 nM) [%] | cell viability (HepG2 [7]; 1000 nM) [%] | cell viability (HepG2 [7]; 10000 nM) [%] | cell viability (Vero E6 [8]; 1 nM) [%] | cell viability (Vero E6 [8]; 10 nM) [%] | cell viability (Vero E6 [8]; 100 nM) [%] | cell viability (Vero E6 [8]; 1000 nM) [%] | cell viability (Vero E6 [8]; 10000 nM) [%] | cell viability (U2OS [9]; 1 nM) [%] | cell viability (U2OS [9]; 10 nM) [%] | cell viability (U2OS [9]; 100 nM) [%] | cell viability (U2OS [9]; 1000 nM) [%] | cell viability (U2OS [9]; 10000 nM) [%] | cell viability (Caco-2 [10]; 1 nM) [%] | cell viability (Caco-2 [10]; 10 nM) [%] | cell viability (Caco-2 [10]; 100 nM) [%] | cell viability (Caco-2 [10]; 1000 nM) [%] | cell viability (Caco-2 [10]; 10000 nM) [%] | drug sensitivity score (Calu-3 [11]) | drug sensitivity score (HepG2 [12]) | drug sensitivity score (Vero E6 [13]) | drug sensitivity score (U2OS [14]) | drug sensitivity score (Caco-2 [15])
1 | NC(=O)N1C(=O)/C(=C(\O)c2cccs2)c2cc(Cl)ccc21 [tenidap] | > 10 | > 10 | > 10 | > 10 | > 10 | 109 | 97 | 85.4 | 108 | 99.9 | 98.4 | 110 | 98.8 | 106 | 99.9 | 102 | 103 | 94.6 | 93.1 | 99 | 99.6 | 98.3 | 93.3 | 102 | 99 | 98.3 | 94.6 | 97.1 | 94 | 91.6 | 0 | 0 | 0 | 0 | 0
2 | O=C(Nc1cccc(Cl)c1)c1ccccn1 | > 10 | > 10 | > 10 | > 10 | > 10 | 94.5 | 95.8 | 95.9 | 114 | 102 | 111 | 100 | 105 | 97.3 | 107 | 107 | 102 | 107 | 99.3 | 103 | 102 | 104 | 99.8 | 108 | 101 | 87.9 | 102 | 98 | 96.8 | 102 | 0 | 0 | 0 | 0 | 0
3 | C/C(=N\NC(=O)C(NC(=O)c1ccccc1)c1n[nH]c(=O)c2ccccc12)c1cccc(Br)c1 (stereo not given) | > 10 | > 10 | > 10 | > 10 | > 10 | 95.7 | 113 | 100 | 107 | 108 | 97.7 | 94.2 | 98.1 | 95.4 | 106 | 88.3 | 97.9 | 97.4 | 100 | 104 | 99.5 | 97 | 100 | 102 | 100 | 101 | 102 | 106 | 95.8 | 100 | 0 | 0 | 0 | 0 | 0
4 | Cc1cc(-c2cc(O)ccc2Cl)cc2nnc(Nc3ccc(OCCN4CCCC4)cc3)nc12 | 2.67 | 2.92 | 2.69 | 1.74 | 1.85 | 100 | 94.8 | 101 | 93.8 | 0.1 | 94.5 | 97.3 | 106 | 96.6 | 0 | 97.8 | 100 | 96.3 | 94 | 0 | 104 | 104 | 106 | 80 | 0 | 94 | 94.7 | 101 | 82.5 | 0.3 | 6.5 | 6 | 6.4 | 8.7 | 8.4
5 | CCCC(CCC)C(=O)NCc1ccc2c(cnn2-c2ccccc2OC)c1 [M-25] | > 10 | > 10 | > 10 | > 10 | > 10 | 113 | 95.5 | 115 | 101 | 102 | 99.8 | 108 | 101 | 105 | 87 | 94.5 | 94.2 | 96.6 | 91.5 | 88.8 | 102 | 100 | 99.5 | 100 | 95.1 | 99.2 | 102 | 97.1 | 95.3 | 79.6 | 0 | 0 | 0 | 0 | 1.2
6 | O=C(O)c1ccc(OCCn2ccnc2)cc1 [dazoxiben] | > 10 | > 10 | > 10 | > 10 | > 10 | 101 | 97.7 | 103 | 102 | 97.7 | 104 | 103 | 84.5 | 102 | 89.8 | 96.3 | 101 | 96.9 | 103 | 110 | 99.8 | 96.5 | 103 | 91.4 | 103 | 108 | 92.7 | 114 | 98.2 | 101 | 0 | 0 | 0 | 0 | 0
7 | O=C(NCc1ccc(Oc2ccccc2)cc1)c1nc(-c2cc(Br)c(O)c(Br)c2)no1 [IOWH032] | > 10 | > 10 | > 10 | > 10 | > 10 | 101 | 102 | 95.9 | 100 | 88.7 | 91.3 | 102 | 86.7 | 101 | 76.1 | 102 | 106 | 104 | 98.2 | 79.9 | 96.7 | 98.5 | 96.4 | 94.5 | 92.3 | 104 | 100 | 99.1 | 88.4 | 81 | 0 | 0.8 | 0.8 | 0 | 1.4
8 | CCCC(=O)Nc1ccc(OCC(O)CNC(C)C)c(C(C)=O)c1 (stereo not given) [acebutolol] | > 10 | > 10 | > 10 | > 10 | > 10 | 95.3 | 104 | 104 | 117 | 88.5 | 106 | 88.6 | 104 | 88.7 | 104 | 88.2 | 96.9 | 93.8 | 81.9 | 95.6 | 90.4 | 96.3 | 95.2 | 98 | 101 | 102 | 94.8 | 93 | 104 | 96.1 | 0 | 0 | 0 | 0 | 0
9 | Cc1ccccc1N1CCN(S(=O)(=O)C[C@]23CC[C@H](C[C@@H]2NC(=O)[C@@H](N)CCS(C)(=O)=O)C3(C)C)CC1 | > 10 | > 10 | > 10 | > 10 | > 10 | 98.2 | 103 | 94.3 | 105 | 99.5 | 109 | 94.7 | 107 | 111 | 108 | 101 | 93.8 | 98 | 87.6 | 110 | 95.3 | 96.4 | 95.8 | 101 | 103 | 97.5 | 93.3 | 90 | 108 | 96.5 | 0 | 0 | 0 | 0 | 0
10 | CCCCCCCC/C=C\CCCCCCCC(=O)NCCO [oleoylethanolamide] | > 10 | > 10 | > 10 | > 10 | > 10 | 97.2 | 101 | 97.1 | 102 | 101 | 92.1 | 96.1 | 103 | 90.2 | 104 | 106 | 102 | 105 | 96.4 | 103 | 99.8 | 100 | 97 | 103 | 103 | 86.2 | 99.2 | 92.3 | 104 | 106 | 0 | 0 | 0 | 0 | 0
11 | O=C(O)Cc1ccc(OCc2ccccc2)c(Cl)c1 [benzofenac] | > 10 | > 10 | > 10 | > 10 | > 10 | 97.6 | 109 | 98.9 | 111 | 93.4 | 98.5 | 92.7 | 94.3 | 87.1 | 93.8 | 103 | 105 | 106 | 99.6 | 96.1 | 98.2 | 98.2 | 99.3 | 100 | 94.4 | 96.9 | 114 | 112 | 104 | 107 | 0 | 0 | 0 | 0 | 0

Reference: the supplement of paper PMC13380429
